For 14 molecules, Ki results are on record in US12226412B2, “Heteroaryl-ketone fused azadecalin glucocorticoid receptor modulators” (Corcept Therapeutics, Inc., priority 2012, dated 2025).

One assay addresses T1, human recombinant GR (Homo sapiens, UniProt P04150).
T1 construct: purchased PanVera P2812
T1 sequence (P04150 1-777): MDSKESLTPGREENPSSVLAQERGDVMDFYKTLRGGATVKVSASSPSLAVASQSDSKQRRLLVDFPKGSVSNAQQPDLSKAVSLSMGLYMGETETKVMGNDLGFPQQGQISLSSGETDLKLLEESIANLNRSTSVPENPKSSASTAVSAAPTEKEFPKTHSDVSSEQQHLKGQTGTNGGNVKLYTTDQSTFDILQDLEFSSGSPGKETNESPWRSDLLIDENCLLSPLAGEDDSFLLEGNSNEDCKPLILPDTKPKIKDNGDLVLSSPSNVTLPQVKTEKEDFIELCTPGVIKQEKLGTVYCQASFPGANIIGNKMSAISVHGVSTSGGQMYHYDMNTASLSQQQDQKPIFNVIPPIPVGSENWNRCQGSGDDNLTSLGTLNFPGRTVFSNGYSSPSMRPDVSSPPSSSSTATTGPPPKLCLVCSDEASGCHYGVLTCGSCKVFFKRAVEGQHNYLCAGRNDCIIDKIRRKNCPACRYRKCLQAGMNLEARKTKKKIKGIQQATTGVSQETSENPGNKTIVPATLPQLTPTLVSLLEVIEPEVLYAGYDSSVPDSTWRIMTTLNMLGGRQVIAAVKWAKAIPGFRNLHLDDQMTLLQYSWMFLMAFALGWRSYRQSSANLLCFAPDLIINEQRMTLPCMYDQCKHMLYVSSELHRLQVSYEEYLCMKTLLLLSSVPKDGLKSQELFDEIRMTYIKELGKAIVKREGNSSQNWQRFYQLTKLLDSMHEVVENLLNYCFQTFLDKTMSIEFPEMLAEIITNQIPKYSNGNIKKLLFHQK
Description: Human glucocorticoid receptor (GR) fluorescence polarisation (FP) binding assay. The following applies: human recombinant GR, fluorescence polarisation binding assay; read-out: GR binding. The protocol:
Human Glucocorticoid Receptor (GR) Fluorescence Polarisation (FP) Binding Assay
The following is a description of a FP assay for measuring compound inhibition of labelled glucocorticoid binding to the human recombinant GR.
The binding affinity of test compounds was determined using a FP binding assay using human recombinant GR (PanVera P2812) and a fluorescent labelled glucocorticoid ligand (Fluorome GS Red) (PanVera P2894). The presence of inhibitors prevents the formation of a GS Red/GR complex resulting in a decrease in the measured polarisation value. The change in polarisation value in the presence of test compounds is used to calculate the binding affinity of the compound for GR.
This assay was performed in 384 well, black, round-bottom, polypropylene micro titre plates in a final volume of 20 μl. The assay contained 5 μl 1 nM GR (final concentration), 5 μl 0.5 nM Fluorome GS Red (final concentration) in the presence of 10 μl test compounds. Positive control wells (high polarisation) receive, 10 μl 2% (v: v) DMSO vehicle (1% (v/v) final concentration)+5 μl 1 nM GR and 5 μl 0.5 nM Fluorome GS Red. […] Assay blank background wells (used for normalisation) receive 15 μl 1× GS screening buffer+5 μl GR.
Compounds were prepared as solubilised solids at 10 mM in DMSO. On the day of assay, an 8 point half-log serial dilution (55 μl DMSO+25 μl compound solution) was prepared. A 1:50 dilution (1 μl compound solution+49 μl 1× GR screening buffer) was prepared for each compound. The compounds were prepared at 2× final assay concentration.
The plates were mixed and incubated for 4 hour at room temperature.
10× GR screening buffer (100 mM potassium phosphate pH 7.4, 200 mM Na2MoO4, 1 mM EDTA, 20% (v/v) DMSO). To prepare 1× GR screening buffer, combine 1 ml 10× GR screening buffer (PanVera P2814)+1 ml stabilising peptide (PanVera P2815)+7.95 ml 4° C. MQ water. Add 50 μl 1M DTT, vortex and place on ice until use.
On the technique in general: Polarisation of emitted light reports the rotation of a fluorescent probe.

Assay [1] relates to induction of TAT by dexamethasone in HepG2 cells. Put plainly: HepG2 tyrosine aminotransferase (TAT) assay. Format: cell-based, human. The following applies: HepG2 cells, challenge of 100 nM dexamethasone; Ki from IC50 by Cheng and Prusoff equation. The protocol:
Example 21. HepG2 Tyrosine Aminotransferase (TAT) Assay
Glucocorticoid mediated activation of TAT occurs by transactivation of glucocorticoid response elements in the TAT promoter by glucocorticoid receptor agonist complex.
TAT activity was measured as outlined in the literature by A. Ali et al., J. Med. Chem., 2004, 47, 2441-2452.
HepG2 cells were cultured using MEME media supplemented with 10% (v/v) foetal bovine serum; 2 mM L-glutamine and 1% (v/v) NEAA at 37° C., 5%/95% (v/v) CO2/air. The HepG2 cells were counted and adjusted to yield a density of 0.125×10^6 cells/ml in RPMI 1640 without phenol red, 10% (v/v) charcoal stripped FBS, 2 mM L-glutamine and seeded at 25,000 cells/well in 200 μl into 96 well, sterile, tissue culture micro titre plates, and incubated at 37° C., 5% CO2 for 24 hours
Growth media was removed and replaced with assay media {RPMI 1640 without phenol red, 2 mM L-glutamine+10 μM forskolin}. […] Compounds were serially half log diluted in 100% (v/v) dimethylsupfoxide from a 10 mM stock.
HepG2 cells were then lysed with 30 μl of cell lysis buffer containing a protease inhibitor cocktail for 15 minutes at 4° C. 155 μl of substrate mixture was then added containing 5.4 mM Tyrosine sodium salt, 10.8 mM alpha ketoglutarate and 0.06 mM pyridoxal 5′ phosphate in 0.1M potassium phosphate buffer (pH 7.4). After 2 hours incubation at 37° C. the reaction was terminated by the addition of 15 μl of 10M aqueous potassium hydroxide solution, and the plates incubated for a further 30 minutes at 37° C. The TAT activity product was measured by absorbance at […].
[compound] and fitting the data to a 4 parameter logistic equation.

`Cc1cccc(S(=O)(=O)N2CCC3=Cc4c(cnn4-c4ccc(F)cc4)C[C@]3(C(=O)c3cc(C)ccn3)C2)c1` [Example 12G, (R)-(1-(4-fluorophenyl)-6-(m-tolylsulfonyl)-4,4a,5,6,7,8-hexahydro-1H-pyrazolo[3,4-g]isoquinolin-4a-yl)(4-methylpyridin-2-yl)methanone]: the Ki at human recombinant GR is less than 0.5 nM; in assay [1] it was less than 20 nM. On to `COc1ccnc(C(=O)[C@]23Cc4cnn(-c5ccc(F)cc5)c4C=C2CCN(S(=O)(=O)c2cc(F)cc(F)c2)C3)c1` [Example 1K, (R)-(6-((3,5-difluorophenyl)sulfonyl)-1-(4-fluorophenyl)-4,4a,5,6,7,8-hexahydro-1H-pyrazolo[3,4-g]isoquinolin-4a-yl)(4-methoxypyridin-2-yl)methanone], for which the Ki at human recombinant GR is less than 0.5 nM; in assay [1], less than 20 nM. Consider `COCc1cccc(S(=O)(=O)N2CCC3=Cc4c(cnn4-c4ccc(F)cc4)C[C@]3(C(=O)c3ccccn3)C2)c1` [Example 11AA, (R)-(1-(4-fluorophenyl)-6-((3-(methoxymethyl)phenyl)sulfonyl)-4,4a,5,6,7,8-hexahydro-1H-pyrazolo[3,4-g]isoquinolin-4a-yl)(pyridin-2-yl)methanone], for which the Ki is less than 0.5 nM at human recombinant GR and 20 to 100 nM in assay [1]. On to `O=C(c1ccnc(N2CCCC2)c1)[C@]12Cc3cnn(-c4ccc(F)cc4)c3C=C1CCN(S(=O)(=O)c1ccc(F)c(F)c1)C2` [Example 11BH, (R)-(6-((3,4-difluorophenyl)sulfonyl)-1-(4-fluorophenyl)-4,4a,5,6,7,8-hexahydro-1H-pyrazolo[3,4-g]isoquinolin-4a-yl)(2-(pyrrolidin-1-yl)pyridin-4-yl)methanone], for which the Ki at human recombinant GR was greater than 1 nM; in assay [1], no less than 100 nM. Consider `O=C(c1ccccn1)[C@]12Cc3cnn(-c4ccc(F)cc4)c3C=C1CCN(S(=O)(=O)c1ccc(Cl)c(C(F)(F)F)c1)C2` [Example 11BF, (R)-(6-((4-chloro-3-(trifluoromethyl)phenyl)sulfonyl)-1-(4-fluorophenyl)-4,4a,5,6,7,8-hexahydro-1H-pyrazolo[3,4-g]isoquinolin-4a-yl)(pyridin-2-yl)methanone], for which the Ki on human recombinant GR is less than 0.5 nM; in assay [1], 20 to 100 nM. Taken in the same sequence, the figures for `Cc1ncc(S(=O)(=O)N2CCC3=Cc4c(cnn4-c4ccc(F)cc4)C[C@]3(C(=O)c3cc(C(F)(F)F)ccn3)C2)n1C` [Example 11BW, (R)-(6-((1,2-dimethyl-1H-imidazol-5-yl)sulfonyl)-1-(4-fluorophenyl)-4,4a,5,6,7,8-hexahydro-1H-pyrazolo[3,4-g]isoquinolin-4a-yl)(4-(trifluoromethyl)pyridin-2-yl)methanone] were greater than 1 nM and 20 to 100 nM.

On to `Cc1cccc(S(=O)(=O)N2CCC3=Cc4c(cnn4-c4ccc(F)cc4)C[C@]3(C(=O)c3ncco3)C2)c1` [Example 1I, (R)-(1-(4-fluorophenyl)-6-(m-tolylsulfonyl)-4,4a,5,6,7,8-hexahydro-1H-pyrazolo[3,4-g]isoquinolin-4a-yl)(oxazol-2-yl)methanone], for which the results for the Ki (on human recombinant GR; in assay [1]) were less than 0.5 nM and 20 to 100 nM, respectively. With `Cc1ccc(S(=O)(=O)N2CCC3=Cc4c(cnn4-c4ccc(F)cc4)C[C@]3(C(=O)c3cscn3)C2)cc1` [Example 11K, (R)-(1-(4-fluorophenyl)-6-tosyl-4,4a,5,6,7,8-hexahydro-1H-pyrazolo[3,4-g]isoquinolin-4a-yl)(thiazol-4-yl)methanone], the Ki was less than 0.5 nM at human recombinant GR and less than 20 nM in assay [1]. Taken in the same sequence, the figures for `CCCn1nncc1S(=O)(=O)N1CCC2=Cc3c(cnn3-c3ccc(F)cc3)C[C@]2(C(=O)c2cscn2)C1` [Example 11CR, (R)-(1-(4-fluorophenyl)-6-((1-propyl-1H-1,2,3-triazol-5-yl)sulfonyl)-4,4a,5,6,7,8-hexahydro-1H-pyrazolo[3,4-g]isoquinolin-4a-yl)(thiazol-4-yl)methanone] were 0.5 to 1 nM and 20 to 100 nM. Consider `Cn1ccc(S(=O)(=O)N2CCC3=Cc4c(cnn4-c4ccc(F)cc4)C[C@]3(C(=O)c3ccccn3)C2)n1` [Example 11BJ, (R)-(1-(4-fluorophenyl)-6-((1-methyl-1H-pyrazol-3-yl)sulfonyl)-4,4a,5,6,7,8-hexahydro-1H-pyrazolo[3,4-g]isoquinolin-4a-yl)(pyridin-2-yl)methanone], for which the Ki at human recombinant GR is less than 0.5 nM; in assay [1], 20 to 100 nM. Regarding `CCn1nncc1S(=O)(=O)N1CCC2=Cc3c(cnn3-c3ccc(F)cc3)C[C@]2(C(=O)c2ccccn2)C1` [Example 11CI, (R)-(6-((1-ethyl-1H-1,2,3-triazol-5-yl)sulfonyl)-1-(4-fluorophenyl)-4,4a,5,6,7,8-hexahydro-1H-pyrazolo[3,4-g]isoquinolin-4a-yl)(pyridin-2-yl)methanone], the Ki at human recombinant GR was greater than 1 nM; in assay [1] it was 20 to 100 nM. For the molecule `Cn1cc(S(=O)(=O)N2CCC3=Cc4c(cnn4-c4ccc(F)cc4)C[C@]3(C(=O)c3ccccn3)C2)ccc1=O` [Example 17, (R)-5-((1-(4-fluorophenyl)-4a-picolinoyl-4a,5,7,8-tetrahydro-1H-pyrazolo [3,4-g]isoquinolin-6 (4H)-yl)sulfonyl)-1-methylpyridin-2 (1H)-one], in assay [1], the Ki is no less than 100 nM. As for `Cc1cnc(C(=O)[C@]23Cc4cnn(-c5ccc(F)cc5)c4C=C2CCN(S(=O)(=O)c2ccc(Cl)c(Cl)c2)C3)s1` [Example 12O, (R)-(6-((3,4-dichlorophenyl)sulfonyl)-1-(4-fluorophenyl)-4,4a,5,6,7,8-hexahydro-1H-pyrazolo[3,4-g]isoquinolin-4a-yl)(5-methylthiazol-2-yl)methanone], the Ki at human recombinant GR was less than 0.5 nM. On to `O=C(c1ccccn1)[C@]12Cc3cnn(-c4ccc(F)cc4)c3C=C1CCN(S(=O)(=O)c1cncc(N3CCCCC3)c1)C2` [Example 10A, (R)-(1-(4-fluorophenyl)-6-((5-(piperidin-1-yl)pyridin-3-yl)sulfonyl)-4,4a,5,6,7,8-hexahydro-1H-pyrazolo[3,4-g]isoquinolin-4a-yl)(pyridin-2-yl)methanone], for which the Ki on human recombinant GR is less than 0.5 nM.
